{
  "source": "patent EP4379726A1",
  "about": "“THE METHOD FOR PREDICTING THE OCCURRENCE OF THE OFF-TARGET TOXICITY CAUSED BY SIMILARITY BETWEEN A TARGET EPITOPE AND PUTATIVE OFF-TARGET EPITOPES” (Ardigen S.A., priority 2022, dated 2024)",
  "origin": "cited, not measured here",
  "system": "AFP 158 -Specific TCR Engineered T Cells",
  "conditions": "in vitro X-scan, engineered T cells against AFP 158 (FMNKFIYEI)",
  "data": [
    {"sequence": "ILNKFIPDI", "values": [
      {"measurement": "activation of the T-cell", "value": "could activate the T-cell"}
    ]}
  ]
}
